Source: ChEMBL document CHEMBL4043287, “A Structure-Activity Relationship Study of Bitopic N6-Substituted Adenosine Derivatives as Biased Adenosine A1 Receptor Agonists” (J Med Chem, 2018)
pEC50: −log10 of the molar value. Activity calls are given as the source filed them. The calls are words filed in the database; no cut-off is given here.

What follows are compounds tested against T1, Adenosine receptor A1 (Homo sapiens, UniProt P30542) (assay: Agonist activity at human A1AR expressed in FlpIn-CHO cells assessed as intracellular calcium mobilization by measuring agonist transduction coefficient by Fluo-4 dye-based fluorescence assay).
T1 sequence (P30542 whole entry): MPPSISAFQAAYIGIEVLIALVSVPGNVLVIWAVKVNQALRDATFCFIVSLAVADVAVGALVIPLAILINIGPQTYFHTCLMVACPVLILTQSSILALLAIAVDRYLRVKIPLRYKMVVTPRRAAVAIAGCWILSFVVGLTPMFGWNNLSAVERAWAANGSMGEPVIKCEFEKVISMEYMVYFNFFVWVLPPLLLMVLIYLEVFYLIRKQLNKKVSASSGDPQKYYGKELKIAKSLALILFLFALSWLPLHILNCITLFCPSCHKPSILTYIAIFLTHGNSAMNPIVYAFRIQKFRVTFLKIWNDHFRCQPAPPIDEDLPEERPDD
Assay type: cell-based

log(activity) | SMILES
6.91 | O=C(NCCCCCCNc1ncnc2c1ncn2[C@@H]1O[C@H](CO)[C@@H](O)[C@H]1O)c1cccc(-c2cc(C(=O)c3ccccc3)cs2)c1
6.15 | Nc1nc(NCCCCCCNC(=O)c2ccc(-c3sc(N)c(C(=O)c4ccccc4)c3-c3cccc(C(F)(F)F)c3)cc2)c2ncn([C@@H]3O[C@H](CO)[C@@H](O)[C@H]3O)c2n1
6.33 | CCNC(=O)[C@H]1O[C@@H](n2cnc3c(NCCCCCCNC(=O)c4ccc(-c5sc(N)c(C(=O)c6ccccc6)c5-c5cccc(C(F)(F)F)c5)cc4)ncnc32)[C@H](O)[C@@H]1O
5.02 | CC(=O)Nc1sc(-c2ccc(C(=O)NCCCCCCNc3ncnc4c3ncn4[C@@H]3O[C@H](CO)[C@@H](O)[C@H]3O)cc2)c(-c2cccc(C(F)(F)F)c2)c1C(=O)c1ccccc1

These compounds were tested against T1, Adenosine receptor A1 (assay: Agonist activity at human A1AR expressed in FlpIn-CHO cells assessed as intracellular calcium mobilization by Fluo-4 dye-based fluorescence assay relative to control).
Assay type: cell-based

Emax | SMILES
39% | O=C(NCCCCCCNc1ncnc2c1ncn2[C@@H]1O[C@H](CO)[C@@H](O)[C@H]1O)c1cccc(-c2cc(C(=O)c3ccccc3)cs2)c1
34% | Nc1nc(NCCCCCCNC(=O)c2ccc(-c3sc(N)c(C(=O)c4ccccc4)c3-c3cccc(C(F)(F)F)c3)cc2)c2ncn([C@@H]3O[C@H](CO)[C@@H](O)[C@H]3O)c2n1
16% | CCNC(=O)[C@H]1O[C@@H](n2cnc3c(NCCCCCCNC(=O)c4ccc(-c5sc(N)c(C(=O)c6ccccc6)c5-c5cccc(C(F)(F)F)c5)cc4)ncnc32)[C@H](O)[C@@H]1O
20% | CC(=O)Nc1sc(-c2ccc(C(=O)NCCCCCCNc3ncnc4c3ncn4[C@@H]3O[C@H](CO)[C@@H](O)[C@H]3O)cc2)c(-c2cccc(C(F)(F)F)c2)c1C(=O)c1ccccc1

What follows are compounds tested against T2, Adenosine receptor A3 (Homo sapiens) (UniProt P0DMS8) (assay: Agonist activity at human A3AR expressed in FlpIn-CHO cells assessed as inhibition of forskolin-stimulated cAMP accumulation preincubated for 10 mins followed by forskolin addition measured after 30 mins by Alphascreen assay relative to control).
T2 sequence (whole entry): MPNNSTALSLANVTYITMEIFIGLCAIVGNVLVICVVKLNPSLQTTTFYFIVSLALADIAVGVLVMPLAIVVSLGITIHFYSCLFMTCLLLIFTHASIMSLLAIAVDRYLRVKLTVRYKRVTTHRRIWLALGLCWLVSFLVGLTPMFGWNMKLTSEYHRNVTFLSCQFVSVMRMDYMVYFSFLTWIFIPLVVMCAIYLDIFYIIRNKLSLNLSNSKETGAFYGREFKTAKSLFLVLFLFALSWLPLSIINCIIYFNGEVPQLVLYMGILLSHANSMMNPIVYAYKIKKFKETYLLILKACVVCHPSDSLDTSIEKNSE
Assay type: functional, cell-based

Emax | SMILES
74% | O=C(NCCCCCCNc1ncnc2c1ncn2[C@@H]1O[C@H](CO)[C@@H](O)[C@H]1O)c1cccc(-c2cc(C(=O)c3ccccc3)cs2)c1
75% | CCNC(=O)[C@H]1O[C@@H](n2cnc3c(NCCCCCCNC(=O)c4ccc(-c5sc(N)c(C(=O)c6ccccc6)c5-c5cccc(C(F)(F)F)c5)cc4)ncnc32)[C@H](O)[C@@H]1O
60% | CC(=O)Nc1sc(-c2ccc(C(=O)NCCCCCCNc3ncnc4c3ncn4[C@@H]3O[C@H](CO)[C@@H](O)[C@H]3O)cc2)c(-c2cccc(C(F)(F)F)c2)c1C(=O)c1ccccc1

These compounds were tested against Adenosine receptor A2a (Homo sapiens, UniProt P29274) (assay: Agonist activity at human A2A-AR expressed in FlpIn-CHO cells assessed as inhibition of forskolin-stimulated cAMP accumulation preincubated for 40 mins followed by forskolin addition measured after 30 mins by Alphascreen assay).
Adenosine receptor A2a, sequence (P29274 whole entry): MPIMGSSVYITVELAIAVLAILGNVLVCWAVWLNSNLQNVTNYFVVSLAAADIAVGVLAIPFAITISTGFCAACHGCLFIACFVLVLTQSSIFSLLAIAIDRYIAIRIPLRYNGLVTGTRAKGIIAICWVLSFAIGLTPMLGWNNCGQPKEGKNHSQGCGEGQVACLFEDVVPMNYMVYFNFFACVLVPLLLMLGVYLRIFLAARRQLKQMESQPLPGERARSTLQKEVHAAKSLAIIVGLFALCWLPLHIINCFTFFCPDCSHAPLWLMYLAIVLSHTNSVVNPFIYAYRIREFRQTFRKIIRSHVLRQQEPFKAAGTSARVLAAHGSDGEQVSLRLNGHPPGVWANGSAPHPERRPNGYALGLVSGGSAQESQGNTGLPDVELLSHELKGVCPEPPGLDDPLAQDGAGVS

pEC50 | SMILES
6.36 | O=C(NCCCCCCNc1ncnc2c1ncn2[C@@H]1O[C@H](CO)[C@@H](O)[C@H]1O)c1cccc(-c2cc(C(=O)c3ccccc3)cs2)c1
6.12 | Nc1nc(NCCCCCCNC(=O)c2ccc(-c3sc(N)c(C(=O)c4ccccc4)c3-c3cccc(C(F)(F)F)c3)cc2)c2ncn([C@@H]3O[C@H](CO)[C@@H](O)[C@H]3O)c2n1
7.25 | CCNC(=O)[C@H]1O[C@@H](n2cnc3c(NCCCCCCNC(=O)c4ccc(-c5sc(N)c(C(=O)c6ccccc6)c5-c5cccc(C(F)(F)F)c5)cc4)ncnc32)[C@H](O)[C@@H]1O
5.63 | CC(=O)Nc1sc(-c2ccc(C(=O)NCCCCCCNc3ncnc4c3ncn4[C@@H]3O[C@H](CO)[C@@H](O)[C@H]3O)cc2)c(-c2cccc(C(F)(F)F)c2)c1C(=O)c1ccccc1

Each compound was assayed against T3, Adenosine receptor A2b (Homo sapiens, UniProt P29275) (assay: Agonist activity at human A2BAR expressed in FlpIn-CHO cells assessed as […] cAMP accumulation preincubated for 40 mins followed by forskolin addition measured after 30 mins by Alphascreen assay).
T3 sequence (P29275 whole entry): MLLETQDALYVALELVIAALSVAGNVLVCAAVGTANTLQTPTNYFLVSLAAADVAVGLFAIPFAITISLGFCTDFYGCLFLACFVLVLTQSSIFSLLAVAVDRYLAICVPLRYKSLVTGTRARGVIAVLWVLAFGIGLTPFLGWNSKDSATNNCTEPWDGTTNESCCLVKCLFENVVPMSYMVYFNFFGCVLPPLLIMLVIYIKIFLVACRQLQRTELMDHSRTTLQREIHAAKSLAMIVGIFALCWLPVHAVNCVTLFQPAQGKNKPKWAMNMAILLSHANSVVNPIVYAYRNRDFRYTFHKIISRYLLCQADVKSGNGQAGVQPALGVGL
Assay type: functional, cell-based

pEC50 | SMILES
6.80 | O=C(NCCCCCCNc1ncnc2c1ncn2[C@@H]1O[C@H](CO)[C@@H](O)[C@H]1O)c1cccc(-c2cc(C(=O)c3ccccc3)cs2)c1
7.01 | Nc1nc(NCCCCCCNC(=O)c2ccc(-c3sc(N)c(C(=O)c4ccccc4)c3-c3cccc(C(F)(F)F)c3)cc2)c2ncn([C@@H]3O[C@H](CO)[C@@H](O)[C@H]3O)c2n1
7.12 | CCNC(=O)[C@H]1O[C@@H](n2cnc3c(NCCCCCCNC(=O)c4ccc(-c5sc(N)c(C(=O)c6ccccc6)c5-c5cccc(C(F)(F)F)c5)cc4)ncnc32)[C@H](O)[C@@H]1O
6.21 | CC(=O)Nc1sc(-c2ccc(C(=O)NCCCCCCNc3ncnc4c3ncn4[C@@H]3O[C@H](CO)[C@@H](O)[C@H]3O)cc2)c(-c2cccc(C(F)(F)F)c2)c1C(=O)c1ccccc1

The compounds below were run against T4, Adenosine receptor A2b (Homo sapiens) (UniProt P29275) (assay: Agonist activity at human A2BAR expressed in FlpIn-CHO cells assessed as […] cAMP accumulation preincubated for 40 mins followed by forskolin addition measured after 30 mins by Alphascreen assay relative to control).
T4 sequence (whole entry): T3 sequence (P29275 whole entry)
Assay type: functional, cell-based

Emax | SMILES
27% | O=C(NCCCCCCNc1ncnc2c1ncn2[C@@H]1O[C@H](CO)[C@@H](O)[C@H]1O)c1cccc(-c2cc(C(=O)c3ccccc3)cs2)c1
43% | Nc1nc(NCCCCCCNC(=O)c2ccc(-c3sc(N)c(C(=O)c4ccccc4)c3-c3cccc(C(F)(F)F)c3)cc2)c2ncn([C@@H]3O[C@H](CO)[C@@H](O)[C@H]3O)c2n1
38% | CCNC(=O)[C@H]1O[C@@H](n2cnc3c(NCCCCCCNC(=O)c4ccc(-c5sc(N)c(C(=O)c6ccccc6)c5-c5cccc(C(F)(F)F)c5)cc4)ncnc32)[C@H](O)[C@@H]1O
44% | CC(=O)Nc1sc(-c2ccc(C(=O)NCCCCCCNc3ncnc4c3ncn4[C@@H]3O[C@H](CO)[C@@H](O)[C@H]3O)cc2)c(-c2cccc(C(F)(F)F)c2)c1C(=O)c1ccccc1

These compounds were tested against T5, Adenosine receptor A3 (Homo sapiens, UniProt P0DMS8) (assay: Agonist activity at human A3AR expressed in FlpIn-CHO cells assessed as inhibition of forskolin-stimulated cAMP accumulation preincubated for 10 mins followed by forskolin addition measured after 30 mins by Alphascreen assay).
T5 sequence (P0DMS8 whole entry): T2 sequence (whole entry)

pEC50 | SMILES
6.39 | O=C(NCCCCCCNc1ncnc2c1ncn2[C@@H]1O[C@H](CO)[C@@H](O)[C@H]1O)c1cccc(-c2cc(C(=O)c3ccccc3)cs2)c1
5.85 | CCNC(=O)[C@H]1O[C@@H](n2cnc3c(NCCCCCCNC(=O)c4ccc(-c5sc(N)c(C(=O)c6ccccc6)c5-c5cccc(C(F)(F)F)c5)cc4)ncnc32)[C@H](O)[C@@H]1O
6.35 | CC(=O)Nc1sc(-c2ccc(C(=O)NCCCCCCNc3ncnc4c3ncn4[C@@H]3O[C@H](CO)[C@@H](O)[C@H]3O)cc2)c(-c2cccc(C(F)(F)F)c2)c1C(=O)c1ccccc1

The compounds below were run against T2, Adenosine receptor A3 (Homo sapiens) (assay: Agonist activity at human A3AR expressed in FlpIn-CHO cells assessed as inhibition of forskolin-stimulated cAMP accumulation up to 10 uM preincubated for 10 mins followed by forskolin addition measured after 30 mins by Alphascreen assay).
Assay type: functional, cell-based

inhibition | SMILES
inactive | Nc1nc(NCCCCCCNC(=O)c2ccc(-c3sc(N)c(C(=O)c4ccccc4)c3-c3cccc(C(F)(F)F)c3)cc2)c2ncn([C@@H]3O[C@H](CO)[C@@H](O)[C@H]3O)c2n1

What follows are compounds tested against T1, Adenosine receptor A1 (assay: Agonist activity at human A1AR expressed in FlpIn-CHO cells assessed as inhibition of forskolin-stimulated cAMP accumulation preincubated for 10 mins followed by forskolin addition measured after 30 mins by Alphascreen assay).
Assay type: functional, cell-based

pEC50 | SMILES
6.86 | O=C(NCCCCCCNc1ncnc2c1ncn2[C@@H]1O[C@H](CO)[C@@H](O)[C@H]1O)c1cccc(-c2cc(C(=O)c3ccccc3)cs2)c1
5.87 | Nc1nc(NCCCCCCNC(=O)c2ccc(-c3sc(N)c(C(=O)c4ccccc4)c3-c3cccc(C(F)(F)F)c3)cc2)c2ncn([C@@H]3O[C@H](CO)[C@@H](O)[C@H]3O)c2n1
7.01 | CCNC(=O)[C@H]1O[C@@H](n2cnc3c(NCCCCCCNC(=O)c4ccc(-c5sc(N)c(C(=O)c6ccccc6)c5-c5cccc(C(F)(F)F)c5)cc4)ncnc32)[C@H](O)[C@@H]1O
6.86 | CC(=O)Nc1sc(-c2ccc(C(=O)NCCCCCCNc3ncnc4c3ncn4[C@@H]3O[C@H](CO)[C@@H](O)[C@H]3O)cc2)c(-c2cccc(C(F)(F)F)c2)c1C(=O)c1ccccc1

The compounds below were run against T1, Adenosine receptor A1 (assay: Agonist activity at human A1AR expressed in FlpIn-CHO cells assessed as intracellular calcium mobilization by Fluo-4 dye-based fluorescence assay).
Assay type: cell-based

pEC50 | SMILES
7.06 | O=C(NCCCCCCNc1ncnc2c1ncn2[C@@H]1O[C@H](CO)[C@@H](O)[C@H]1O)c1cccc(-c2cc(C(=O)c3ccccc3)cs2)c1
6.59 | Nc1nc(NCCCCCCNC(=O)c2ccc(-c3sc(N)c(C(=O)c4ccccc4)c3-c3cccc(C(F)(F)F)c3)cc2)c2ncn([C@@H]3O[C@H](CO)[C@@H](O)[C@H]3O)c2n1
7.25 | CCNC(=O)[C@H]1O[C@@H](n2cnc3c(NCCCCCCNC(=O)c4ccc(-c5sc(N)c(C(=O)c6ccccc6)c5-c5cccc(C(F)(F)F)c5)cc4)ncnc32)[C@H](O)[C@@H]1O
6.05 | CC(=O)Nc1sc(-c2ccc(C(=O)NCCCCCCNc3ncnc4c3ncn4[C@@H]3O[C@H](CO)[C@@H](O)[C@H]3O)cc2)c(-c2cccc(C(F)(F)F)c2)c1C(=O)c1ccccc1
